Experimental data from patent US20250235451A1, “Methods of Delaying Pain Progression And Treating Prostate Cancer” (ASTRAZENECA AB, priority 2020, published 2025).

Experiments:
[1] = tested on: metastatic castration-resistant prostate cancer (mCRPC) with a qualifying alteration in any of 15 prespecified HRR genes; experiment: Phase III trial NCT02987543, efficacy in the overall population (Cohorts A + B); type: in vivo, human
Description: (§1) Patient population. In clinical trial NCT02987543, eligible patients were male, aged ≥18 years with histological diagnosis of prostate cancer, confirmed mCRPC, whose disease had progressed after one or more treatments with new hormonal agent (NHA) (e.g., enzalutamide or abiraterone, administered for metastatic or non-metastatic castration-resistant prostate cancer, as well as metastatic hormone-sensitive prostate cancer). Prior taxane chemotherapy was allowed. Men without prior surgical castration were required to continue luteinizing-hormone-releasing hormone analog therapy. Patients had adequate organ and bone marrow function. Full eligibility criteria are provided in the trial protocol. All patients provided written informed consent. An investigational clinical trial assay, based on the FoundationOne® CDx next-generation sequencing test was used to prospectively identify patients with qualifying deleterious or suspected deleterious alterations in one or more of the 15 prespecified genes selected for their direct or indirect role in HRR: BRCA1, BRCA2, ATM, BRIP1, BARD1, CDK12, CHEK1, CHEK2, FANCL, PALB2, PPP2R2A, RAD51B, RAD51C, RAD51D, and RAD54L. Tumor testing was conducted centrally using archival or recent biopsy tissue from primary or metastatic disease. Presence of deleterious or suspected deleterious alteration by the central tumor test was required for eligibility, irrespective of the zygosity of the alteration.
(§2) Study design. This was a prospective, randomized, open-label, Phase III study. Eligible patients were included in one of two cohorts depending on their qualifying gene alteration. Cohort A included patients with BRCA1, BRCA2 and/or ATM alterations, regardless of co-occurring qualifying alterations in any of the other genes. Cohort B included patients with alterations in any of the other 12 genes. The overall population comprised patients from Cohort A and Cohort B (i.e., patients with a qualifying alteration in any of the 15 prespecified genes).
(§3) Randomization was stratified by previous taxane use (yes/no) and measurable disease (yes/no). Treatment was continued until objective radiographic disease progression assessed by a third-party vendor blinded independent central review (BICR), or unacceptable toxicity. Patients randomized to the control arm were eligible to cross over to olaparib treatment upon BICR-confirmed radiographic progression.
(§4) The primary endpoint was rPFS assessed by BICR in patients with BRCA1, BRCA2, and/or ATM alterations (Cohort A). rPFS was defined as the time from randomization until soft-tissue disease progression (by Response Evaluation Criteria in Solid Tumors (RECIST) v1.1), bone lesion progression (by Prostate Cancer Working Group 3 (PCWG3) criteria) or death. A prespecified sensitivity analysis of rPFS based on investigator assessment was performed. rPFS by BICR in the overall population was also a secondary endpoint.
(§5) Additional secondary endpoints evaluated included confirmed radiographic objective response rate (ORR), time to pain progression (TTPP), overall survival (OS), prostate-specific antigen (PSA) response (PSA50 response) and circulating tumor cell (CTC) conversion rate. ORR was assessed among evaluable patients who had measurable disease at baseline as assessed by BICR using RECIST v1.1 (responses were also assessed by BICR using RECIST v1.1, were confirmed and required absence of progression on bone scan assessed by PCWG3). OS is defined as time from randomization to time point at which death due to any cause occurs. A pre-specified sensitivity analysis for the crossover effect on OS was performed. Safety was assessed in the overall population through reporting of Common Terminology Criteria for Adverse Events (CTCAE) v4.0 and collection of clinical chemistry and hematology parameters.
(§6) Time to pain progression (TTPP) was based on Brief Pain Inventory-Short Form item 3 ('worst pain in 24 hours) and initiation of opiate analgesic use (Analgesic Quantification Algorithm score). […]

[2] = tested on: metastatic castration-resistant prostate cancer (mCRPC) with BRCA1, BRCA2, and/or ATM alterations; experiment: Phase III trial NCT02987543, efficacy in Cohort A (alterations in BRCA1, BRCA2 and/or ATM); type: in vivo, human
Description: as §1, §2, §3, §4, §5, §6

[3] = Phase III trial NCT02987543, safety (adverse events, CTCAE v4.0) in the overall population; type: in vivo
Procedure: as §5
Blood samples for PSA assessments were collected at baseline, every 4 weeks until week 24, then every 8 weeks until study treatment discontinuation, and for CTC analyses were collected at baseline and then every 8 weeks until study treatment discontinuation. Overall survival was assessed every 12 weeks after progression. Adverse events (AEs) were graded according to the National Cancer Institute Common Terminology Criteria for Adverse Events version 4.0. […]
Statistical analysis. Efficacy data were analyzed on an intent-to-treat basis and safety data were reported for all patients who received ≥1 dose of trial treatment. […] For time-to-event endpoints, rPFS, time to pain progression, and OS, P-values were calculated using log-rank tests, stratified by stratification factors. […] The Kaplan-Meier method was used to calculate medians for each trial arm. Logistic regression models adjusted for stratification factors were used to analyze objective responses. A multiple-testing procedure was used to control for the study-wide type 1 error rate. […] For OS, the two-sided 5% level of alpha was split at the interim (0.01) and final (0.047) analyses using an O′Brien-Fleming spending function.

[4] = overall population, evaluable patients
[5] = overall population, olaparib vs control

O=C(c1cc(Cc2n[nH]c(=O)c3ccccc23)ccc1F)N1CCN(C(=O)C2CC2)CC1 [Olaparib, 4-[(3-{[4-(cyclopropane-carbonyl)piperazine-1-yl]carbonyl}-4-fluorophenyl)methyl]-2H-phthalazin-1-one]
Median TTPP (months), sensitivity analysis including any death as an event ([1]; Cohorts A + B (overall population)): 11.89 months
TTPP Pain severity, Events (%) ([1]; overall population): 9.4%
TTPP Pain severity, Events n ([1]; overall population): 24 n
TTPP Worst pain, Events (%) ([1]; overall population): 12.5%
TTPP Worst pain, Events n ([1]; overall population): 32 n
Time to Opiate use, Events (%) ([1]; overall population): 37.1%
Time to Opiate use, Events n ([1]; overall population): 65 n
Time to Opiate use, Median (m) ([1]; overall population): 18.0 m
median rPFS by BICR ([1]; overall population): 5.82 months
TTPP Pain severity, 6-month rate (%) ([1]; overall population, 6 months): 88.7%
TTPP Worst pain, 6-month rate (%) (free of pain progression) ([1]; overall population, 6 months): 85.2%
Time to Opiate use, 6-month rate (%) ([1]; overall population, 6 months): 25%
TTPP Pain severity, 12-month rate (%) ([1]; overall population, 12 months): 81.0%
TTPP Worst pain, 12-month rate (%) ([1]; overall population, 12 months): 76.3%
Time to Opiate use, 12-month rate (%) ([1]; overall population, 12 months): 41%
Median OS at interim analysis ([1]; overall population, data maturity 41%): 17.51 months
CTC conversion [1, 4]: 26.8%
PSA50 response [1, 4]: 30.0%
confirmed objective response rate [1, 4]: 21.7%
TTPP Pain severity, HR [1, 5]: 0.71
TTPP Worst pain, HR [1, 5]: 0.64
Time to Opiate use, HR [1, 5]: 0.67
median progression free survival greater than for subjects receiving the standard of care treatment ([1]; overall subject population): at least 2 months
Median TTPP (months), sensitivity analysis including any death as an event [2]: 17.22 months
median OS (interim analysis) ([2]; data maturity 38%): 18.50 months
CTC conversion ([2]; evaluable patients): 29.9%
PSA50 response ([2]; evaluable patients): 43.1%
confirmed objective response rate ([2]; evaluable patients): 33.3%
reduction in risk for disease progression or death ([2]; olaparib vs control): 66%
median rPFS (radiographic progression-free survival) by BICR ([2]; primary endpoint): 7.39 months
Anemia, All grades, (%) [3]: (46.5) %
Anemia, Grade ≥3, (%) [3]: (21.5) %
Any adverse event, All grades, (%) [3]: (95.3) %
Any adverse event, Grade ≥3, (%) [3]: (50.8) %
Arthralgia, All grades, (%) [3]: (9.4) %
Arthralgia, Grade ≥3, (%) [3]: (0.4) %
Back pain, All grades, (%) [3]: (13.7) %
Back pain, Grade ≥3, (%) [3]: (0.8) %
Cough, All grades, (%) [3]: (10.9) %
Decreased appetite, All grades, (%) [3]: (30.1) %
Decreased appetite, Grade ≥3, (%) [3]: (1.2) %
Diarrhea, All grades, (%) [3]: (21.1) %
Diarrhea, Grade ≥3, (%) [3]: (0.8) %
Discontinuation of intervention due to adverse event, (%) [3]: (18.0) %
Dose reduction due to adverse event, (%) [3]: (22.3) %
Dyspnea, All grades, (%) [3]: (10.2) %
Dyspnea, Grade ≥3, (%) [3]: (2.3) %
Fatal adverse event, (%) [3]: (3.9) %
Fatigue & asthenia, All grades, (%) [3]: (41.0) %
Fatigue & asthenia, Grade ≥3, (%) [3]: (2.7) %
Interruption of intervention due to adverse event, (%) [3]: (44.9) %
Nausea, All grades, (%) [3]: (41.4) %
Nausea, Grade ≥3, (%) [3]: (1.2) %
Peripheral edema, All grades, (%) [3]: (12.5) %
Urinary tract infection, All grades, (%) [3]: (7.0) %
Urinary tract infection, Grade ≥3, (%) [3]: (1.6) %
Vomiting, All grades, (%) [3]: (18.4) %
Vomiting, Grade ≥3, (%) [3]: (2.3) %
patients reporting new primary malignancies [3]: 1 n
pulmonary embolism events, % [3]: 4.3%
pulmonary embolism events, number ([3]; none were fatal): 11
